Results: patent publication US6339073B1, “Uses of nicotinamide adenine dinucleotide and its derivatives for treatment of malignant and infectious diseases” (Oxigene, Inc., priority 1997, dated 2002)

How the values were obtained:
HL60 cells = test: cells
Method: Assessment of cytotoxicity in HL60 and K562 cells by clonogenic assay. The assay used is based on Schweitzer et al (Exper. Hematol. 21: 573-578, 1993). HL60 or K562 cells were cultured in 96-well microplates, at 800 cells per well, in a medium of 0.6% methyl cellulose (Methocel A4M, Dow Chemicals, USA), 10% fetal calf serum, RPMI 1640 (Life Technologies Ltd, UK), and gentamycin (50 μg/ml, Biological Industries, Israel). Microculture wells received 10 μl of NAD, NADP, NADH, ADP-ribose, nicotinamide (NAM), or 3-acetyl pyridine adenine dinucleotide solutions within which the final concentrations were adjusted to be between 0-5000 μM after addition of 190 μl cell-containing medium. Final methyl cellulose concentration was 0.6%. […] In the case of the radiosensitization experiments, the cells were irradiated with 1-2 Gy gamma radiation 15 minutes before addition of NAD. The central area of the bottom of each well (25% of total) was counted, and the counts of colonies and clusters expressed as % of control in order to avoid influences from inter-experimental baseline variations.

K562 leukemic cells = assay type: cell-based
Source text: Final methyl cellulose concentration was 0.6%.

[1] = tested on: HL60 (human promyeloid leukemia line) cells; test: Measurement of in vitro cytotoxicity by apoptosis; assay type: cell-based
Method: Cell culture. HL60 (human promyeloid leukemia line) cells were cultured at a density of 0.5×106 to 1.0×10^6 cells/ml in RPMI medium supplemented with 10% fetal calf serum (FCS) at 37° C. in a 5% CO2 atmosphere. The cells were harvested by centrifugation and resuspended in fresh medium at a concentration of 1×106 to 2×10^6 cells/ml for bioassay purposes.
Measurement of in vitro cytotoxicity by apoptosis. HL60 cells were exposed in culture to 2 Gy radiation, 100 μM nMCA (neutral metoclopramide, Neu-Sensamide), 0-5000 μM NAD±10 mM, and±NADase inhibitor, 3-acetyl pyridine adenine dinucleotide, given 30 minutes before drug treatment. The % apoptosis was determined after 6 hours. The cytotoxicity was evaluated by morphological identification of apoptotic cells (400 ×magnification with phase contrast microscopy) using trypan blue exclusion (0.1% isotonic solution+5% serum) after 5 minutes incubation at room temperature. Apoptotic cells were identified as having chromatin condensation, shrinkage, membrane blebbing, fragmentation and appearance of “apoptotic bodies” (Kaufman et al, Cancer Res. 53:3976-3985, 1993).

[2] = tested on: human lung adenocarcinoma (H2981) xenograft; test: Evaluation of antitumor activity of NAD in vivo; design: species or system Scid mice; conditions: NAD i.p. 25 or 50 mg/kg, 21 days
Method: Evaluation of antitumor activity of NAD in vivo. Scid mice (n=10 per group) were transplanted by subcutaneous injection of H-2981 (human adenocarcinoma) tumor tissue suspension in the right flank. When the tumors grew to 80-100 mm2, the animals were divided into three groups: Group 1 was injected i.p. with saline, Group 2 was injected i.p. with NAD at 25 mg/kg dissolved in saline, and Group 3 was injected i.p. with NAD at 50 mg/kg. The treatment schedule was daily Monday through Friday with no treatment Saturday and Sunday for 21 days. Tumor volumes were recorded every other day for 21 days and converted to AUC tumor growth values as previously described in detail (Hua et al, Anti-Cancer Drugs 6: 451-455, 1995).

NC(=O)C1=CN([C@@H]2O[C@H](COP(=O)(O)OP(=O)(O)OC[C@H]3O[C@@H](n4cnc5c(N)ncnc54)[C@H](O)[C@@H]3O)[C@@H](O)[C@H]2O)C=CC1 [NADH]
clonogenic cytotoxicity (number of colonies) (HL60 cells): equally effective at inducing cytotoxicity

Nc1ncnc2c1ncn2[C@@H]1O[C@H](COP(=O)(O)OP(=O)(O)OC[C@H]2OC(O)[C@H](O)[C@@H]2O)[C@@H](O)[C@H]1O (some centres unmarked) [ADP-ribose]
clonogenic cytotoxicity (number of colonies) (HL60 cells): equally effective at inducing cytotoxicity
clonogenic cytotoxicity (number of colonies) (K562 leukemic cells): the same

CCN(CC)CCNC(=O)c1cc(Cl)c(N)cc1OC [nMCA, neutral metoclopramide]
effect of NADase inhibitor on drug induced apoptosis ([1]; 10 mM 3-acetyl pyridine adenine dinucleotide given 30 minutes before drug, 6 hours): unaffected by the presence of the NADase inhibitor

NC(=O)c1ccc[n+]([C@@H]2O[C@H](COP(=O)([O-])OP(=O)(O)OC[C@H]3O[C@@H](n4cnc5c(N)ncnc54)[C@H](O)[C@@H]3O)[C@@H](O)[C@H]2O)c1 [NAD, nicotinamide adenine dinucleotide]
IC50 (HL60 cells; Homo sapiens, HL-60, 144 h, read-out: Doses that result in >50% inhibition of clonogenicity): < 500 µM
body weight loss or acute symptoms [2]: no significant body weight loss or acute symptoms
clonogenic cytotoxicity (number of colonies) (K562 leukemic cells): the same

CC(=O)c1ccc[n+]([C@@H]2O[C@H](COP(=O)([O-])OP(=O)(O)OC[C@H]3O[C@@H](n4cnc5c(N)ncnc54)[C@H](O)[C@@H]3O)[C@@H](O)[C@H]2O)c1 [3-acetyl pyridine adenine dinucleotide, reference compound]
clonogenic cytotoxicity (number of colonies) (HL60 cells): can nonetheless show cytotoxicity
induction of apoptosis ([1]; % apoptosis after 6 hours, without NADase inhibitor): cannot induce cytoxicity by apoptosis
clonogenic cytotoxicity (number of colonies) (K562 leukemic cells): can nonetheless show cytotoxicity

NC(=O)c1cccnc1 [Nicotinamide, nicotinamide]
clonogenic cytotoxicity (number of colonies) (HL60 cells): little to no effect on clonogenicity
